Experimental data published in patent US20170112941A1, “VE-CADHERIN BINDING BIOCONJUGATE” (Symic IP, LLC, priority 2015, published 2017).
Ends that are not written are not given here. * marks the point of attachment. NHNH2 = NN*

Experiments:
[1] = biological target: T1, Recombinant VE cadherin/Fc chimera (Homo sapiens, UniProt P33151); assay: VE-Cadherin Binding Assay (plate ELISA with biotinylated molecule, streptavidin-HRP)
T1 construct: purchased R&D systems 938-VC
Description: Recombinant VE cadherin/Fc chimera (R&D systems, Prod#938-VC) was prepared in 1× Phosphate Buffered Saline (PBS, Gibco, pH 7.4) at 5 μg/mL. 50 μL of this solution was incubated in each well of Costar high bind plate (Prod #9018) overnight at 4° C. The plate was washed three times with PBS. VE-cadherin coated wells were blocked using 0.5% non-fat dry milk and 50 μg/mL heparin sodium in 1×PBS. Blocked plates were then treated with a concentration gradient of eHep-Bbeta (biotinylated) molecule (eHep-Bbeta, 1:8:50). The eHep-Bbeta was dissolved in Tris-NaCl—CaCl2 at 1 mg/mL, serial dilution (1:3) 50 μL 2 hour RT. At the end of the incubation plate was washed three times with PBS.
Ultra-Streptavidin HRP (ThermoFisher Scientific, Prod# N504) was diluted 1:500 using 1% BSA, 1×PBS and 0.05% tween was used to detect the biotinylated molecule bound to rh VE-cadherin coated plates. 100 μL of streptavidin solution was incubated in each well for 20 minutes at RT. The plate was washed three times with 1×PBS. 100 μL of TMB substrate solution (Abcam, slowest kinetic rate) was added to each well and developed for 20 minutes in the dark. 25 μL of stop solution (0.64 M H2SO4 in water) was added to stop the reaction and absorbance was read using Molecular Device i3 at 450 nm.
This assay may be used to determine the binding affinity of the bioconjugates as well as the peptides alone.

HUVECs = assay: HUVEC culture, thrombin challenge, pMLC/phalloidin fluorescence imaging; format: cell-based, human; settings: thrombin 1 U/mL, eHep-Bbeta 100 μg/mL, 10 minutes at 37° C., FIG. 3
Description: HUVECs were grown to confluence in 24-well tissue culture treated plates (10000 cells per cm^2) for 3 days. The cells were cultured in vascular basal medium (ATCC, prod# PCS-100-030) supplemented with 0.2% bovine brain extract (BBE), 10 mM L-glutamine, 5 U/mL heparin sodium, 1 μg/mL hydrocortisone hemisuccinate, 50 μg/mL ascorbic acid, and 20% fetal bovine serum. The wells were washed three times with 1× phosphate buffered saline (PBS), and then were treated with medium alone, medium supplemented with thrombin at 1 U/mL, medium supplemented with thrombin at 1 U/mL and eHep-Bbeta at 100 μg/mL, medium supplemented with thrombin at 1 U/mL and heparin at 100 μg/mL for 10 minutes at 37° C. The wells were then washed three times with 1×PBS. Each wash was for 5 minutes. The cells were then fixed using 4% formalin in 1×PBS for 15 minutes at room temperature, washed four times with 1×PBS (each wash was for 10 minutes). Blocking buffer containing 5% normal goat serum, and 0.3% Triton-X 100 in 1×PBS was prepared and 500 μL was added to each well. Blocking was done for 1 hour at room temperature. Antibody dilution buffer containing 1% BSA, and 0.3% Triton-X 100 in 1×PBS was prepared. 200 μL of Rabbit anti pMLC diluted 1:50 using antibody dilution buffer was added to each well and incubated overnight at 4° C. […] The wells were then imaged using an EVOS fluorescence microscope.

[2] = system: acute renal ischemic model; assay: Renal Ischemia Reperfusion (acute renal ischemic model); format: in vivo; settings: rat
Description: Kidney damage was assessed by measuring serum creatinine levels 24 hours post procedure, and by creatinine clearance measured at 24 hours and 7 days post procedure. In this study, the ischemia time was reduced here to produce a more moderate injury, and the bioconjugate was delivered to the femoral vein, rather than directly to the renal artery, in order to reduce procedure time. See, Verma, et al. “Renal Endothelial Injury and Microvascular Dysfunction in Acute Kidney Injury.” Seminars in nephrology. Vol. 35. No. 1. WB Saunders, 2015 and Urbschat, et al. “Combined peri-ischemic administration of BP 15-42 in treating ischemia reperfusion injury of the mouse kidney.” Microvascular research 101 (2015): 48-54. All test articles were formulated in 1×PBS at 5 mg/mL and 500 μL were delivered for an approximate dose of 10 mg/kg. 1.4. […] Animals were closed and monitored during recovery for 24 hours. • 1.5.8. […] If creatinine clearance was positive in the positive control or test article at 7 days, the animal was survived until day 28, at which point creatinine clearance was again be measured. […] Serum creatinine was measured in each animal at baseline (prior to procedure) and 24 hours post-procedure. • 1.7. Creatinine clearance was measured at 1 and 7 days post procedure. • 1.8. […] Serum creatinine and creatinine clearance levels measured at 24 hours was compared between groups using an unpaired t-test. […]

T1 sequence (P33151 with tags, fused parts or gaps limits assumed): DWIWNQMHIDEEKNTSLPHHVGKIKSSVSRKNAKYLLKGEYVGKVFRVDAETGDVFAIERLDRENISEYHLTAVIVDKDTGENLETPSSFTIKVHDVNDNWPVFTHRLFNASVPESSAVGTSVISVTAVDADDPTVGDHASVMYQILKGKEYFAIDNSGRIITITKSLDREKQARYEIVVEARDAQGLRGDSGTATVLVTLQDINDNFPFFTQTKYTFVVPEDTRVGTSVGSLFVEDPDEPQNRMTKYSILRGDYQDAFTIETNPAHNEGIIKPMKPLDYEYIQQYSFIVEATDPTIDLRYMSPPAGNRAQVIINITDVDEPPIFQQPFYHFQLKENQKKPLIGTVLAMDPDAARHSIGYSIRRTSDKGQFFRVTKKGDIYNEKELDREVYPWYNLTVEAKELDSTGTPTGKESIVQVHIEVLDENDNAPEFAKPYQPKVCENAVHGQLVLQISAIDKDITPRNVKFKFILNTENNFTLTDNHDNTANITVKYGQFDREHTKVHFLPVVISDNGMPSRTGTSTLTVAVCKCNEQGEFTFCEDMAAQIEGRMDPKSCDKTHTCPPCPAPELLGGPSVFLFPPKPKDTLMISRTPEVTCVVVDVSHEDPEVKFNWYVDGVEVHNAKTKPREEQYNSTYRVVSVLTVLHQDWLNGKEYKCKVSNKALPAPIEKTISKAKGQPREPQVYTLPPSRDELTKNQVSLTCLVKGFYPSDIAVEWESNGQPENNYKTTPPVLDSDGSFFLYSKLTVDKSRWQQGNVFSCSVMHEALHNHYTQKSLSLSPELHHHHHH

Substance: eHep-Bbeta: Heparin (MWavg 16 kDa) coupled by EDC to Bbeta peptide GHRPLDKKREEAPSLRPAPPPISGGGYR(GSG)-hydrazide; about 3.7 peptides/heparin (GHRPLDKKREEAPSLRPAPPPISGGGYRGSG-NHNH2; also: coupled by EDC to heparin (MWavg 16 kDa), about 3.7 peptides/heparin, attachment site not given here)
- effect of Tris-NaCl-CaCl2 buffer on molecule binding to VE-cadherin ([1]; Tris-NaCl-CaCl2 buffer): enhances molecule binding significantly
- binding to VE-cadherin ([1]; biotinylated eHep-Bbeta (1:8:50), 1 mg/mL in Tris-NaCl-CaCl2, serial dilution 1:3, 2 hour RT, absorbance 450 nm, FIG. 2): binds to VE-cadherin in a dose dependent manner
- endothelial cell barrier function (HUVECs): preserves endothelial cell barrier function
- protection from renal damage upon reperfusion, compared with active control (peptide alone) ([2]; 30 minutes ischemia, approximate dose 10 mg/kg into femoral vein immediately after clamp removal, FIG. 4): protects from renal damage upon reperfusion better than active control (peptide alone)
- kidney damage (serum creatinine 24 hours, creatinine clearance 24 hours and 7 days post procedure) ([2]; treatment immediately following renal reperfusion, approximate dose 10 mg/kg, femoral vein): inhibits kidney damage
